Earlier results in US7064108B2 (Merck & Co., Inc., priority 2002, dated 2006).

Legend:
[1] = tested on: glutamate-gated chloride ion channels; conditions: invertebrate nerve and muscle cells
[2] = tested on: mammalian ligand-gated chloride channels
Onchocerca volvulus [3] = conditions: after one month; single oral dose approximately 150 ug/kg
[4] = tested on: head lice (Pediculosis capitis); conditions: single oral 200 ug/kg dose, 26 patients
head lice [5] = conditions: after a single topical application
head lice [6] = conditions: single oral dose of 100–200 ug/kg
Onchocerca volvulus [7] = tested on: Onchocerca volvulus
[8] = amicrofilaremic population in mass treatment programs

Q: For `Nc1nc2cccc(-c3ccc(CN4CCS(=O)(=O)CC4)cc3)n2n1` [metabolite], which plasma half life (metabolite of ivermectin) is on record?
A: The plasma half life was “about 3 days”.

Q: For Ivermectin, which “affinity for glutamate-gated chloride ion channels” value [1] is on record?
A: Its value is “high affinity”.

Q: And the “affinity for mammalian ligand-gated chloride channels” value [2]?
A: The value was “low affinity”.

Q: And the dermal microfilarial density (Onchocerca volvulus [3])?
A: The dermal microfilarial density was “near zero”.

Q: And the “effect against head lice” value [4]?
A: The value was “effectiveness”.

Q: What about the “effect on head lice” value (head lice [5]) of the same compound?
A: The value was “absolute curative effect”.

Q: What about the “effect on head lice infestation” value (head lice [6]) of the same compound?
A: The value was “significant, but not absolute, effect”.

Q: What about the “activity against adult form” value (Onchocerca volvulus [7]; adult form of Onchocerca volvulus) of the same compound?
A: The value was “not against the adult form”.

Q: What about the “activity against tissue microfilariae” value (Onchocerca volvulus [7]; tissue microfilariae of Onchocerca volvulus) of the same compound?
A: The value was “active”.

Q: And the plasma half-life (in vivo)?
A: The plasma half-life was 15 to 20 h.

Q: And the “overall incidences of adverse experiences” value [8]?
A: Its value is 1%.
